Literature values in patent publication US9781921B2, “Emulsifiable concentrate formulation” (Huntsman Corporation Australia Pty Limited, priority 2012, dated 2017).

Tested on: mouse
Conditions: summary of Table 2

## CC(=O)OCc1ccccc1 [Benzyl Acetate, benzyl acetate]
  Toxicity: relatively low toxicity
